Test results from patent US20240310360A1, “METHOD OF […] RESPONSE OF CELL GROUP TO TEST SUBSTANCE” (CANON KABUSHIKI KAISHA, priority 2023, published 2024).
Like-named read-outs stand apart in the source and are kept apart here.

Key:
[1] = test system: PBMCs; experiment: Autofluorescence imaging FAD/NADH ratio of PBMCs after antigen stimulation (Example 2); type: cell-based; conditions: peptide solution 10 nM, PBMCs without preculturing
Procedure: PBMCs having reactivity to a test substance that differs from the reactivity in Example 1 were used here. The PBMCs used here were manufactured by Cellular Technology Limited, and thawed by following a manual provided by the manufacturer. Unlike Example 1, preculturing was skipped and the PBMCs were immediately presented to a test for examining reactivity to a test substance.
The thawed PBMCs were suspended in the CTL-Test Medium at a cell concentration of 7.2×10^6 cells/mL, and 250 μL each was seeded in a 24-well plate. As the test substance, a peptide solution manufactured by Cellular Technology Limited, specifically, CMV pp65 (495-503) Peptide (having a peptide concentration of 10 nM) was used, and 250 μL of this peptide solution was added to each of the wells containing the cells.
As a control cell group to which no test substances were added, cells to which 250 μL each of CTL-Test Medium was added instead of a peptide solution were used. After antigen stimulation, the cells were left to stand for 1 hour to 24 hours in a 5% CO2 incubator. From each well, an entire amount of cell suspension solution was collected and subjected to 5 minutes of centrifugation at 300 G. After the centrifugation, a supernatant was removed and cell pellets were suspended in 1,000 μL of PBS. Further, the resultant cell suspension solution was diluted 5 times with the PBS. Then, 100 μL of the diluted cell suspension solution was seeded onto a cover glass part (having a diameter of 16 mm) of a 35-mm glass bottom dish, and was used for bright field observation and autofluorescence observation.
The subsequent bright-field image acquisition, autofluorescence image acquisition, extraction and analysis of the color information of the autofluorescence images were performed by the same methods as the methods in Example 1.

[2] = test system: PBMCs; conditions: PBMCs used in Example 2; confirmed in advance by the manufacturer; cited from earlier work
[3] = test system: PBMCs; conditions: PBMCs used in Example 1; confirmed in advance by the manufacturer; cited from earlier work

CMV pp65 (495-503) Peptide: peptide solution manufactured by Cellular Technology Limited; peptide that binds directly to an MHC (NLVPMVATV; UniProt P06725 495-503, looked up, fragment)
drop in FAD/NADH ratio compared to PBMCs with no test substance added ([1]; 1 hour of stimulation): reproduced | drop in FAD/NADH ratio compared to PBMCs with no test substance added ([1]; 4 hours after stimulation): hardly observed | drop in FAD/NADH ratio compared to PBMCs with no test substance added ([1]; period from 4 hours to 24 hours after stimulation): substantially no drop | reactivity of the PBMCs to the peptide (ELISpot test) [2]: react strongly | reactivity of the PBMCs to the peptide (ELISpot test) [3]: react weakly
